{
  "source": "paper PMC13061574",
  "about": "(Nature structural & molecular biology, 2024)",
  "key": {"THIK1 (K2P13.1) [1]": {"target": "T1, THIK1 (K2P13.1) (Homo sapiens, UniProt Q9HB14, R92A)", "T1 sequence (Q9HB14 1-408 R92A)": "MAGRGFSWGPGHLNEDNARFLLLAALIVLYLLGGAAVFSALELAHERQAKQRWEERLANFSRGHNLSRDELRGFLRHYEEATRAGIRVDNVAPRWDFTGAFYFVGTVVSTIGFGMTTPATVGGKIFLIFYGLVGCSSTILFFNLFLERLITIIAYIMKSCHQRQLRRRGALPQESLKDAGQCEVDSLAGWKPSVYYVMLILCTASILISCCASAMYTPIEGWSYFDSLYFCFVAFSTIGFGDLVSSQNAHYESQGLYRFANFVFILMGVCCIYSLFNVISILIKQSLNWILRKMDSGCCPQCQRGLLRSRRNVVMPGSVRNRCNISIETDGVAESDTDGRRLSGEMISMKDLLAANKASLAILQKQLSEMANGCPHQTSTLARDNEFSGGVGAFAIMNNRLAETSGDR", "experiment": "TEVC electrophysiology dose–response, activation", "type": "cell-based"}, "THIK1 (K2P13.1) [2]": {"target": "T1, THIK1 (K2P13.1)", "experiment": "TEVC electrophysiology, activation", "type": "cell-based"}, "cryo-EM structure": {"target": "the molecule itself", "experiment": "cryo-EM structure"}},
  "data": [
    {"molecule": "CCCCC/C=C\\C/C=C\\CCCCCCCC(=O)O", "note": "[EIC, linoleic acid]", "values": [
      {"measurement": "EC50", "setting": "THIK1 (K2P13.1) [1]", "result": 700, "unit": "nM"}
    ]},
    {"molecule": "CC/C=C\\C/C=C\\C/C=C\\C/C=C\\C/C=C\\CCCC(=O)O", "note": "[EPA, eicosapentanoic acid]", "values": [
      {"measurement": "TEVC electrophysiology, activation", "setting": "THIK1 (K2P13.1) [2]", "result": "α-LNL, eicosapentanoic acid (EPA), dihomo-γ-EIC (DGLA) and oleic acid (OA) also activated R92A"}
    ]},
    {"molecule": "CCCCCCCC/C=C\\CCCCCCCC(=O)O", "note": "[OA, oleic acid]", "values": [
      {"measurement": "TEVC electrophysiology, activation", "setting": "THIK1 (K2P13.1) [2]", "result": "α-LNL, eicosapentanoic acid (EPA), dihomo-γ-EIC (DGLA) and oleic acid (OA) also activated R92A"}
    ]},
    {"molecule": "THIK1EM (human K2P13.1 (THIK1) residues 1-350, N59Q, N65Q) (domain or fragment, UniProt Q9HB14 1-350, looked up) MAGRGFSWGPGHLNEDNARFLLLAALIVLYLLGGAAVFSALELAHERQAKQRWEERLAQFSRGHQLSRDELRGFLRHYEEATRAGIRVDNVRPRWDFTGAFYFVGTVVSTIGFGMTTPATVGGKIFLIFYGLVGCSSTILFFNLFLERLITIIAYIMKSCHQRQLRRRGALPQESLKDAGQCEVDSLAGWKPSVYYVMLILCTASILISCCASAMYTPIEGWSYFDSLYFCFVAFSTIGFGDLVSSQNAHYESQGLYRFANFVFILMGVCCIYSLFNVISILIKQSLNWILRKMDSGCCPQCQRGLLRSRRNVVMPGSVRNRCNISIETDGVAESDTDGRRLSGEMISMK", "values": [
      {"measurement": "stoichiometry N", "setting": "cryo-EM structure", "result": 2}
    ]},
    {"molecule": "THIK1EM-S136P (domain or fragment, human, UniProt Q9HB14 1-350, looked up) MAGRGFSWGPGHLNEDNARFLLLAALIVLYLLGGAAVFSALELAHERQAKQRWEERLAQFSRGHQLSRDELRGFLRHYEEATRAGIRVDNVRPRWDFTGAFYFVGTVVSTIGFGMTTPATVGGKIFLIFYGLVGCPSTILFFNLFLERLITIIAYIMKSCHQRQLRRRGALPQESLKDAGQCEVDSLAGWKPSVYYVMLILCTASILISCCASAMYTPIEGWSYFDSLYFCFVAFSTIGFGDLVSSQNAHYESQGLYRFANFVFILMGVCCIYSLFNVISILIKQSLNWILRKMDSGCCPQCQRGLLRSRRNVVMPGSVRNRCNISIETDGVAESDTDGRRLSGEMISMK", "values": [
      {"measurement": "binding result", "setting": "cryo-EM structure", "result": "binds"}
    ]}
  ]
}
